Assay [1] concerns the target T1, p_H-CD81 (human CD81 peptide) (Homo sapiens, UniProt P60033).
T1 construct: ^167[…]^188; purchased GeneMark (GMbiolab Co., Ltd., Taiwan); host or cells: chemical synthesis
Put plainly: SPR binding to immobilized human CD81 peptide. Conditions: for Kd: Biacore T200, CM-5 chip, p_H-CD81 immobilized (~1000 RU), flow 30 µL/min 2 min, steady-state isotherm, monovalent model, average of three measurements ± standard deviation; for SPR response / binding (in words): various concentrations over immobilized human CD81 peptide. From the text: (§1) Based on the in silico analysis, peptides were designed for experimental validations of the binding site predictions. Four peptides (p_E2-site1, p_E2-site2, p_H-CD81 and p_R-CD81) designed according to the ZDOCK program and MM/PBSA binding free energy calculations were chemically synthesized and purchased from GeneMark (GMbiolab Co., Ltd., Taiwan). The human and rat CD81 peptides, p_H-CD81 and p_R-CD81, and the HCV E2 peptides, p_E2-site1 and p_E2-site2, were derived from the results of molecular docking between ligand E2 and receptor CD81. Control and HCV E2 mutant peptides were also synthesized (S1 Table) for the SPR and cell based binding measurements to rule out the possible non-specific bindings in the investigations. The HCV E2 mutant peptides were designed based on the mutation studies.
(§2) SPR experiments were conducted to measure the binding efficiency of the designed ligand and receptor peptides. The SPR measurements were performed using a Biacore T200 workstation (GE Healthcare, USA). Peptides p_H-CD81 and p_R-CD81 were diluted to a concentration of 7.5 μM in a 10 mM sodium acetate buffer at pH 4.0 and immobilized onto a CM-5 sensor chip using amine coupling (EDC-NHS) for 5 min at a flow speed of 5 μL/min. Approximately 1000 response units (RU) of p_H-CD81 and p_R-CD81 were immobilized on the chip. In this study, data on the kinetics and affinity of ligand-receptor binding were obtained by flowing several different concentrations of the p_E2-site1 and p_E2-site2 over the chip sequentially at a flow rate of 30 µL/min for 2 min. The response was measured at two time points, 0 and 120 sec, to obtain information on the rate of CD81 peptides association with and dissociation from the p-E2-site1 and p-E2-site2 peptides. Equilibrium binding curves were generated and fitted using a monovalent binding model for each peptide to determine the KD of the binding of E2 peptides (p_E2-site1 and p_E2-site2) with receptor CD81 peptides (p_H-CD81 and p_R-CD81).
In general terms: In SPR one partner is held on a chip, and binding of the other changes the refractive index at the surface.

The target of assay [2] is T2, p_R-CD81 (rat CD81 peptide) (Rattus norvegicus, UniProt Q62745).
T2 construct: ^167[…]^188; purchased GeneMark (GMbiolab Co., Ltd., Taiwan); host or cells: chemical synthesis
Put plainly: SPR binding to immobilized rat CD81 peptide. Conditions: for Kd: steady-state isotherm; for SPR response / binding (in words): various concentrations over immobilized rat CD81 peptide.
Source text: as §1, §2

For a further assay, the target named is T3, p_H-CD81 (human).
T3 construct: human CD81, head domain of the large extracellular loop, residues 167-188; Immobilised on a CM-5 chip by amine coupling; also called human CD81 peptide; receptor peptide from the head domain region of human CD81; source: synthetic peptide, bought: GeneMark (GMbiolab Co., Ltd., Taiwan)
T3 peptide: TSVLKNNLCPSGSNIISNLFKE
Put plainly: SPR; Biacore T200; p_H-CD81 or p_R-CD81 (about 1000 RU) immobilised on a CM-5 chip by amine coupling; E2 peptides flowed over at several concentrations, 30 µL/min for 2 min; equilibrium binding curves fitted with a monovalent binding model. Conditions: both partners purified.

For the next assay, the target named is T4, p_R-CD81 (rat).
T4 construct: rat CD81, head domain of the large extracellular loop, residues 167-188; Immobilised on a CM-5 chip by amine coupling; also called rat CD81 peptide; receptor peptide from the head domain region of rat CD81; source: synthetic peptide, bought: GeneMark (GMbiolab Co., Ltd., Taiwan)
T4 peptide: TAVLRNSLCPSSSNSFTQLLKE
The description is as above. Particulars: both partners purified.

Read-outs that look alike come from different tables or passages of the source. Residues, ends and D or L forms follow the SMILES beside them.

`CC(C)[C@H](NC(=O)[C@H](CC(=O)O)NC(=O)[C@@H](NC(=O)[C@H](CC(=O)O)NC(=O)[C@H](CC(N)=O)NC(=O)[C@H](C)NC(=O)CNC(=O)[C@H](Cc1c[nH]c2ccccc12)NC(=O)[C@H](CO)NC(=O)[C@H](Cc1ccc(O)cc1)NC(=O)[C@@H](NC(=O)[C@@H]1CCCN1C(=O)[C@H](C)NC(=O)CNC(=O)[C@H](CO)NC(=O)[C@@H](N)CCCNC(=N)N)[C@@H](C)O)[C@@H](C)O)C(=O)N[C@@H](Cc1ccccc1)C(=O)O` [p_E2-site2] (H-RSGAPTYSWGANDTDVF-OH): the dissociation constant (Kd) (as a rule, the constant that tells how readily two partners part at equilibrium) in assay [1] turned out to be 1.07 ± 0.09 µM; in assay [2] (p_R-CD81 immobilized, value printed in Fig 6 plot, read-out: KD (printed in the picture, Fig 6)) it was 6.4 µM.
On to “CPLNGSTVYGHLRHCLSCSGTMVKF [p_random-25, control (random) peptide]”, for which the “SPR response / binding (in words)” value in assay [1] and in assay [2] was “not significantly increased” each time.
Regarding “SENHLRHCLSCSKCRKEM [p_random-18, control (random) peptide]”, the “SPR response / binding (in words)” value in assay [1] and in assay [2] was “not significantly increased” throughout.
As for `CC[C@H](C)[C@H](N)C(=O)N[C@@H](CC(N)=O)C(=O)N[C@@H](CO)C(=O)N[C@H](C(=O)N[C@@H](C)C(=O)N[C@@H](CC(C)C)C(=O)N[C@@H](CC(N)=O)C(=O)N[C@@H](CS)C(=O)N[C@@H](CC(N)=O)C(=O)N[C@@H](CCC(=O)O)C(=O)N[C@@H](CO)C(=O)N[C@@H](CC(C)C)C(=O)N[C@@H](CC(N)=O)C(=O)N[C@H](C(=O)NCC(=O)N[C@@H](Cc1c[nH]c2ccccc12)C(=O)N[C@@H](CC(C)C)C(=O)N[C@@H](C)C(=O)NCC(=O)N[C@@H](CC(C)C)C(=O)N[C@@H](Cc1ccccc1)C(=O)N[C@@H](Cc1ccc(O)cc1)C(=O)N[C@@H](CCC(N)=O)C(=O)O)[C@@H](C)O)[C@@H](C)O` [p_E2-site1] (H-INSTALNCNESLNTGWLAGLFYQ-OH), the Kd worked out at 7.96 ± 1.7 µM in assay [1] and 13.8 ± 2.46 µM in assay [2] (Biacore T200, CM-5 chip, p_R-CD81 immobilized (~1000 RU), flow 30 µL/min 2 min, monovalent model, average of three measurements ± standard deviation, read-out: KD).

B1: p_E2-site1 (peptide)
peptide: INSTALNCNESLNTGWLAGLFYQ
notes: hepatitis C virus envelope glycoprotein E2, residues 422-444 of the polyprotein; also called E2-site1 peptide; E2-s1; source: synthetic peptide, bought: GeneMark (GMbiolab Co., Ltd., Taiwan)
B1: the values for the Kd with p_H-CD81 and with p_R-CD81 were 7.96 µM and 13.8 µM, respectively.

B2: p_E2-site2 (peptide)
peptide: RSGAPTYSWGANDTDVF
notes: hepatitis C virus envelope glycoprotein E2, residues 521-537 of the polyprotein; also called E2-site2 peptide; E2-s2; source: synthetic peptide, bought: GeneMark (GMbiolab Co., Ltd., Taiwan)
For the molecule B2, the dissociation constant (Kd) worked out at 1.07 µM with p_H-CD81 and 6.38 µM with p_R-CD81.

The values are drawn from PMC5421814, “A Sequence in the loop domain of hepatitis C virus E2 protein identified in silico as crucial for the selective binding to human CD81” (PLoS ONE, 2017).
